Data published in US7851474B2, “Dipiperazinyl ketones and related analogues” (Neurogen Corporation, priority 2005, dated 2010).

Each molecule was assayed against T1, chimeric human H3 receptor (Homo sapiens, UniProt Q9Y5N1, E19D) (assay: Chimeric human H3 receptor GTP binding assay (agonist-stimulated GTP-gamma35S binding, Example 7)). Details: Table II "Ki", symbol "*": Ki in the assay of Example 7; read-out: Ki.
T1 construct: made in house; host or cells: Sf9 insect cells (baculovirus infection); P2 membrane preparation
T1 sequence (Q9Y5N1 with tags, fused parts or gaps E19D): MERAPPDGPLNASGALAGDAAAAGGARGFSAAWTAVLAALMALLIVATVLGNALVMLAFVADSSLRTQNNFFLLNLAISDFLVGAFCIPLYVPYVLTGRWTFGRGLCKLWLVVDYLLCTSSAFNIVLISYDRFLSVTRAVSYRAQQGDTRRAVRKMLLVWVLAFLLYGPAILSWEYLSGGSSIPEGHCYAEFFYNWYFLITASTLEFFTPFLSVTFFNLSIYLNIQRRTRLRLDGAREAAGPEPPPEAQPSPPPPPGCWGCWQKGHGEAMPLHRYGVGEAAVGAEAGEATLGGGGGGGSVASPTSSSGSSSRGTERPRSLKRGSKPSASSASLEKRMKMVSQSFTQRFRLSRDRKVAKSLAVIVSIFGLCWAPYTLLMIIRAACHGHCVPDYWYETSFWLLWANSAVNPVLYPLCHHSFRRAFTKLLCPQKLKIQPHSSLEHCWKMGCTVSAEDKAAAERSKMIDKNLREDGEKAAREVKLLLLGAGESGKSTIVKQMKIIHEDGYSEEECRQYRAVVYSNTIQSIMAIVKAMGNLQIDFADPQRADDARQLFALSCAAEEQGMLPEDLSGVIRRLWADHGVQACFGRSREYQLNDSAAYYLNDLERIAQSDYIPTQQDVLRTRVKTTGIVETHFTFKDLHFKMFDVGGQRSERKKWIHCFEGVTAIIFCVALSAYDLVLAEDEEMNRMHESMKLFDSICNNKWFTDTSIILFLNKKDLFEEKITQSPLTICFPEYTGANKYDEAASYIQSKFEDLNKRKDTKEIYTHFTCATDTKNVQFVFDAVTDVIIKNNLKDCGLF
Assay type: biochemical
Procedure, shortened: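 Sf9 membranes co-expressing the chimeric receptor and heterotrimeric G-protein subunits, 35 μg protein per tube, in pH 7.4 Tris buffer with 10 μM GDP. Test compounds at 10^−10 to 10^−6 M with 1 μM histamine, 60 min at room temperature. Filter-bound GTP-gamma^35S read by scintillation; IC50 from non-linear regression of dose-response curves.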
With `Cc1ccc(F)c(-c2cnc(N3CCN(CC(=O)N4CCN(C5CCC5)CC4)CC3)cn2)c1` [Compound 921, 2-{4-[2-(4-cyclobutylpiperazin-1-yl)-2-oxoethyl]piperazin-1-yl}-5-(2-fluoro-5-methylphenyl)pyrazine] the Ki was < 1000 nM.
With `Cc1ccc(-c2cnc(N3CCN(CC(=O)N4CCN(C5CCC5)CC4)CC3)cn2)cc1F` [Compound 922, 2-{4-[2-(4-cyclobutylpiperazin-1-yl)-2-oxoethyl]piperazin-1-yl}-5-(3-fluoro-4-methylphenyl)pyrazine] the Ki was < 1000 nM.
For `Cc1cc(-c2cnc(N3CCN(CC(=O)N4CCN(C5CCC5)CC4)CC3)cn2)ccc1F` [Compound 923, 2-{4-[2-(4-cyclobutylpiperazin-1-yl)-2-oxoethyl]piperazin-1-yl}-5-(4-fluoro-3-methylphenyl)pyrazine], the Ki was < 1000 nM.
For `Cc1cccc(-c2cnc(N3CCN(CC(=O)N4CCN(C5CCC5)CC4)CC3)cn2)c1` [Compound 924, 2-{4-[2-(4-cyclobutylpiperazin-1-yl)-2-oxoethyl]piperazin-1-yl}-5-(3-methylphenyl)pyrazine], the Ki was < 1000 nM.
For `Cc1ccc(-c2cnc(N3CCN(CC(=O)N4CCN(C5CCC5)CC4)CC3)cn2)cc1` [Compound 925, 2-{4-[2-(4-cyclobutylpiperazin-1-yl)-2-oxoethyl]piperazin-1-yl}-5-(4-methylphenyl)pyrazine], the Ki was < 1000 nM.
For `CC(C)c1cccc(-c2cnc(N3CCN(CC(=O)N4CCN(C5CCC5)CC4)CC3)cn2)c1` [Compound 926, 2-{4-[2-(4-cyclobutylpiperazin-1-yl)-2-oxoethyl]piperazin-1-yl}-5-(3-isopropylphenyl)pyrazine], the Ki was < 1000 nM.
In the case of `CC(C)c1ccc(-c2cnc(N3CCN(CC(=O)N4CCN(C5CCC5)CC4)CC3)cn2)cc1` [Compound 927, 2-{4-[2-(4-cyclobutylpiperazin-1-yl)-2-oxoethyl]piperazin-1-yl}-5-(4-isopropylphenyl)pyrazine], the Ki is reported as < 1000 nM.
With `Cc1ccc(-c2cnc(N3CCN(CC(=O)N4CCN(C5CCC5)CC4)CC3)cn2)cc1C` [Compound 928, 2-{4-[2-(4-cyclobutylpiperazin-1-yl)-2-oxoethyl]piperazin-1-yl}-5-(3,4-dimethylphenyl)pyrazine] the Ki was < 1000 nM.
In the case of `Cc1cc(C)cc(-c2cnc(N3CCN(CC(=O)N4CCN(C5CCC5)CC4)CC3)cn2)c1` [Compound 929, 2-{4-[2-(4-cyclobutylpiperazin-1-yl)-2-oxoethyl]piperazin-1-yl}-5-(3,5-dimethylphenyl)pyrazine], the Ki is reported as < 1000 nM.
For `CCc1ccc(-c2cnc(N3CCN(CC(=O)N4CCN(C5CCC5)CC4)CC3)cn2)cc1` [Compound 930, 2-{4-[2-(4-cyclobutylpiperazin-1-yl)-2-oxoethyl]piperazin-1-yl}-5-(4-ethylphenyl)pyrazine], the Ki was < 1000 nM.
With `CCCc1ccc(-c2cnc(N3CCN(CC(=O)N4CCN(C5CCC5)CC4)CC3)cn2)cc1` [Compound 931, 2-{4-[2-(4-cyclobutylpiperazin-1-yl)-2-oxoethyl]piperazin-1-yl}-5-(4-propylphenyl)pyrazine] the Ki was < 1000 nM.
For `CCc1cccc(-c2cnc(N3CCN(CC(=O)N4CCN(C5CCC5)CC4)CC3)cn2)c1` [Compound 932, 2-{4-[2-(4-cyclobutylpiperazin-1-yl)-2-oxoethyl]piperazin-1-yl}-5-(3-ethylphenyl)pyrazine], the Ki was < 1000 nM.
In the case of `COc1cccc(-c2cnc(N3CCN(CC(=O)N4CCN(C5CCC5)CC4)CC3)cn2)c1` [Compound 933, 2-{4-[2-(4-cyclobutylpiperazin-1-yl)-2-oxoethyl]piperazin-1-yl}-5-(3-methoxyphenyl)pyrazine], the Ki is reported as < 1000 nM.
With `O=C(CN1CCN(c2cnc(-c3ccc(OC(F)(F)F)cc3)cn2)CC1)N1CCN(C2CCC2)CC1` [Compound 934, 2-{4-[2-(4-cyclobutylpiperazin-1-yl)-2-oxoethyl]piperazin-1-yl}-5-[4-(trifluoromethoxy)phenyl] pyrazine] the Ki was < 1000 nM.
With `CCOc1cccc(-c2cnc(N3CCN(CC(=O)N4CCN(C5CCC5)CC4)CC3)cn2)c1` [Compound 935, 2-{4-[2-(4-cyclobutylpiperazin-1-yl)-2-oxoethyl]piperazin-1-yl}-5-(3-ethoxyphenyl)pyrazine] the Ki was < 1000 nM.
With `O=C(CN1CCN(c2cnc(-c3ccc(Oc4ccccc4)cc3)cn2)CC1)N1CCN(C2CCC2)CC1` [Compound 936, 2-{4-[2-(4-cyclobutylpiperazin-1-yl)-2-oxoethyl]piperazin-1-yl}-5-(4-phenoxyphenyl)pyrazine] the Ki was < 1000 nM.
In the case of `O=C(CN1CCN(c2cnc(-c3cccc(OC(F)(F)F)c3)cn2)CC1)N1CCN(C2CCC2)CC1` [Compound 937, 2-{4-[2-(4-cyclobutylpiperazin-1-yl)-2-oxoethyl]piperazin-1-yl}-5-[3-(trifluoromethoxy)phenyl] pyrazine], the Ki is reported as < 1000 nM.
In the case of `CSc1cccc(-c2cnc(N3CCN(CC(=O)N4CCN(C5CCC5)CC4)CC3)cn2)c1` [Compound 938, 2-{4-[2-(4-cyclobutylpiperazin-1-yl)-2-oxoethyl]piperazin-1-yl}-5-[3-(methylthio)phenyl] pyrazine], the Ki is reported as < 1000 nM.

Same assay, conditions: Table II; assay of Example 7; "*" in Ki; read-out: Ki
With `COc1ccc(-c2ccc(-c3cnc(N4CCN(CC(=O)N5CCN(C6CCC6)CC5)CC4)cn3)cc2)cc1` [Compound 939, 2-{4-[2-(4-cyclobutylpiperazin-1-yl)-2-oxoethyl]piperazin-1-yl}-5-(4′-methoxybiphenyl-4-yl)pyrazine] the Ki was < 1000 nM.
With `COc1cc(F)c(-c2cnc(N3CCN(CC(=O)N4CCN(C5CCC5)CC4)CC3)cn2)cc1F` [Compound 940, 2-{4-[2-(4-cyclobutylpiperazin-1-yl)-2-oxoethyl]piperazin-1-yl}-5-(2,5-difluoro-4-methoxyphenyl)pyrazine] the Ki was < 1000 nM.
`COc1ccc2cc(-c3cnc(N4CCN(CC(=O)N5CCN(C6CCC6)CC5)CC4)cn3)ccc2c1` [Compound 941, 2-{4-[2-(4-cyclobutylpiperazin-1-yl)-2-oxoethyl]piperazin-1-yl}-5-(6-methoxy-2-naphthyl)pyrazine] was tested, and the Ki was < 1000 nM.
For `CC(C)Oc1cccc(-c2cnc(N3CCN(CC(=O)N4CCN(C5CCC5)CC4)CC3)cn2)c1` [Compound 942, 2-{4-[2-(4-cyclobutylpiperazin-1-yl)-2-oxoethyl]piperazin-1-yl}-5-(3-isopropoxyphenyl) pyrazine], the Ki was < 1000 nM.
For `COc1cc(-c2cnc(N3CCN(CC(=O)N4CCN(C5CCC5)CC4)CC3)cn2)cc(OC)c1OC` [Compound 943, 2-{4-[2-(4-cyclobutylpiperazin-1-yl)-2-oxoethyl]piperazin-1-yl}-5-(3,4,5-trimethoxyphenyl)pyrazine], the Ki was < 1000 nM.
`COc1ccc(-c2cnc(N3CCN(CC(=O)N4CCN(C5CCC5)CC4)CC3)cn2)cc1` [Compound 944, 2-{4-[2-(4-cyclobutylpiperazin-1-yl)-2-oxoethyl]piperazin-1-yl}-5-(4-methoxyphenyl)pyrazine] was tested, and the Ki was < 1000 nM.
`COc1ccc(-c2cnc(N3CCN(CC(=O)N4CCN(C5CCC5)CC4)CC3)cn2)cc1OC` [Compound 945, 2-{4-[2-(4-cyclobutylpiperazin-1-yl)-2-oxoethyl]piperazin-1-yl}-5-(3,4-dimethoxyphenyl) pyrazine] was tested, and the Ki was < 1000 nM.
In the case of `CCOc1ccc(-c2cnc(N3CCN(CC(=O)N4CCN(C5CCC5)CC4)CC3)cn2)cc1` [Compound 946, 2-{4-[2-(4-cyclobutylpiperazin-1-yl)-2-oxoethyl]piperazin-1-yl}-5-(4-ethoxyphenyi)pyrazine], the Ki is reported as < 1000 nM.
With `O=C(CN1CCN(c2cnc(-c3ccc4c(c3)OCCO4)cn2)CC1)N1CCN(C2CCC2)CC1` [Compound 947, 2-{4-[2-(4-cyclobutylpiperazin-1-yl)-2-oxoethyl]piperazin-1-yl}-5-(2,3-dihydro-1,4-benzodioxin-6-yl)pyrazine] the Ki was < 1000 nM.
`COc1ccc(-c2cnc(N3CCN(CC(=O)N4CCN(C5CCC5)CC4)CC3)cn2)cc1C` [Compound 948, 2-{4-[2-(4-cyclobutylpiperazin-1-yl)-2-oxoethyl]piperazin-1-yl}-5-(4-methoxy-3-methylphenyl)pyrazine] was tested, and the Ki was < 1000 nM.
For `CCCOc1ccc(-c2cnc(N3CCN(CC(=O)N4CCN(C5CCC5)CC4)CC3)cn2)cc1` [Compound 949, 2-{4-[2-(4-cyclobutylpiperazin-1-yl)-2-oxoethyl]piperazin-1-yl}-5-(4-propoxyphenyl)pyrazine], the Ki was < 1000 nM.
In the case of `COc1ccc(-c2cnc(N3CCN(CC(=O)N4CCN(C5CCC5)CC4)CC3)cn2)c(C)c1` [Compound 950, 2-{4-[2-(4-cyclobutylpiperazin-1-yl)-2-oxoethyl]piperazin-1-yl}-5-(4-methoxy-2-methylphenyl)pyrazine], the Ki is reported as < 1000 nM.
For `COc1ccccc1-c1cnc(N2CCN(CC(=O)N3CCN(C4CCC4)CC3)CC2)cn1` [Compound 951, 2-{4-[2-(4-cyclobutylpiperazin-1-yl)-2-oxoethyl]piperazin-1-yl}-5-(2-methoxyphenyl)pyrazine], the Ki was < 1000 nM.
In the case of `COc1ccc(C(C)C)cc1-c1cnc(N2CCN(CC(=O)N3CCN(C4CCC4)CC3)CC2)cn1` [Compound 952, 2-{4-[2-(4-cyclobutylpiperazin-1-yl)-2-oxoethyl]piperazin-1-yl}-5-(5-isopropyl-2-methoxyphenyl)pyrazine], the Ki is reported as < 1000 nM.
`COc1ccc(OC)c(-c2cnc(N3CCN(CC(=O)N4CCN(C5CCC5)CC4)CC3)cn2)c1` [Compound 953, 2-{4-[2-(4-cyclobutylpiperazin-1-yl)-2-oxoethyl]piperazin-1-yl}-5-(2,5-dimethoxyphenyl) pyrazine] was tested, and the Ki was < 1000 nM.
With `COc1ccc(-c2cnc(N3CCN(CC(=O)N4CCN(C5CCC5)CC4)CC3)cn2)c(OC)c1` [Compound 954, 2-{4-[2-(4-cyclobutylpiperazin-1-yl)-2-oxoethyl]piperazin-1-yl}-5-(2,4-dimethoxyphenyl) pyrazine] the Ki was < 1000 nM.
In the case of `CCOc1ccccc1-c1cnc(N2CCN(CC(=O)N3CCN(C4CCC4)CC3)CC2)cn1` [Compound 955, 2-{4-[2-(4-cyclobutylpiperazin-1-yl)-2-oxoethyl]piperazin-1-yl}-5-(2-ethoxyphenyl)pyrazine], the Ki is reported as < 1000 nM.
